pIC50: −log10 of the molar value.
Legend:
L1210 tumor cells = assay: Antitumor efficacy in L1210 tumor-bearing CDF1 mice (increase in life span); type: in vivo
Experimental: In the following test, antitumor efficacy studies were performed using 8-9 weeks old female CDF1 mice, the average weight of the animal is 20-25 grams. L1210 tumor cells (about 10^5 cells per mouse) were inoculated intraperitoneally. The fluorine-containing water-soluble platinum complexes were used to treat the tumor-bearing animals and the efficacy was compared compared with the clinical platinum antitumor drugs. […] Drugs were administered intraperitoneally on day 1 and day 4 after tumor cell transplantation. The number of experimental animals in each group was 6.
The experimental animals were purchased from Vital River Laboratory Animal Technology Co. Ltd., Tumor cells L1210-leukemia cells were purchased from Shanghai An Yan Commercial Trade Co. Ltd.
The increase in life span (ILS) is calculated as follows:
Wherein, St=the weighted median survival time of treated animals; Su=the weighted median survival time of untreated animals

[1] = cited from earlier work
A549 = assay: MTS cytotoxicity test, A549; type: cell-based; conditions: 96 h, read-out: IC50 value in human tumor cells
Experimental: (§1) Containing 10% bovine fetal serum, 1 mM of sodium pyruvate, 2 mM of L-glutamine, 50 U/mL of penicillin, 50 μg/mL of streptomycin
(§2) Human tumor cells: dul45-human prostate cancer; MCF-7-human breast cancer; SK0V3-human ovarian carcinoma, HT-29-human colon cancer; A549-human non-small cell lung cancer (adenocarcinoma), H460-human non-small cell lung cancer (large cell carcinoma), and animal tumor cells: L1210-mice leukemia cells used in the following activity test experiments were all purchased from Shanghai An Yan Commercial Trade Co., Ltd.
(§3) MTS test method was used in cytotoxicity assay. The tumor cells of logarithmic phase were collected, and then the concentration of cell suspension was adjusted, 100 μL of the cell suspension was added to each well, the cells were placed at 1000-10000 cells/well (edge well filled with sterile PBS). Cells were incubated at 37° C. with 5% CO2 to make cell monolayer overspread the bottom of each well (96-well flat-bottomed microplate). 100 μL of different concentrations of the test compounds was added to each well. Each condition was measured in five replicates. The microplate was incubated at 37° C. with 5% CO2 for 96 h and checked with inverted microscope. MTS working reagent: To 2 mL of MTS (2 mg/mL, prepared by DPBS) was added 100 μL of PMS (1 mg/mL, prepared by DPBS). The cell culture medium was discarded after centrifugation, the cell culture plate was carefully washed 2-3 times with PBS. Before detecting the absorbance value (OD), to each sample containing well was added 100 μL of cell culture medium, then 20 μL of MTS working reagent was added. After incubation at 37° C. with 5% CO2 for 2 h, the OD (optical density) value was detected at 490 nm.
(§4) Control group: the conditions are the same as the above without adding the active ingredient of antitumor agents, and the OD value was detected at 490 nm on the end of the experiment.
(§5) The cell inhibiting rate of the drugs to tumor cell growth was calculated according to the following formula:
(§6) 1) Cell viability (%)=OD of treated group/OD of control group×100%
(§7) 2) The cell viabilities under the different drug concentrations were determined, and then plotted against drug concentration. The IC50 value is the corresponding concentration in the obtained curve when the cell viability was 50%.

SKOV3 = assay: MTS cytotoxicity test, SKOV3; type: cell-based; conditions: 96 h, read-out: IC50 value in human tumor cells
Experimental: as §1, §2, §3, §4, §5, §6, §7

MCF7 = assay: MTS cytotoxicity test, MCF7; type: cell-based; conditions: 96 h, read-out: IC50 value in human tumor cells
Experimental: as §1, §2, §3, §4, §5, §6, §7

HT29 = assay: MTS cytotoxicity test, HT29; type: cell-based; conditions: 96 h, read-out: IC50 value in human tumor cells
Experimental: as §1, §2, §3, §4, §5, §6, §7

DU145 = assay: MTS cytotoxicity test, DU145; type: cell-based; conditions: 96 h, read-out: IC50 value in human tumor cells
Experimental: as §1, §2, §3, §4, §5, §6, §7

H460 = assay: MTS cytotoxicity test, H460; type: cell-based; conditions: 96 h, read-out: IC50 value in human tumor cells
Experimental: as §1, §2, §3, §4, §5, §6, §7

[2] = 24 mg/Kg i.p. on day 1 and day 4
[3] = 40 mg/Kg i.p. on day 1 and day 4
[4] = 80 mg/Kg i.p. on day 1 and day 4
[5] = 50 mg/Kg i.p. on day 1 and day 4
[6] = 100 mg/Kg i.p. on day 1 and day 4
[7] = 200 mg/Kg i.p. on day 1 and day 4

Structure (SMILES): N.N.O=C([O-])C1(C(=O)[O-])CCC1.[Pt+2] [Carboplatin]
- ILS (%) (L1210 tumor cells; [2]): 10%
- Survived Animals on Day 42 (L1210 tumor cells; [2]): 0/6
- Weight Changes (g) (L1210 tumor cells; 24 mg/Kg i.p. on day 1 and day 4, weight changes from the first day to the seventh day): +0 g
- ILS (%) (L1210 tumor cells; [3]): 24%
- Survived Animals on Day 42 (L1210 tumor cells; [3]): 0/6
- Weight Changes (L1210 tumor cells; 40 mg/Kg i.p. on day 1 and day 4, weight changes from the first day to the seventh day): -0.3 g
- ILS (%) (L1210 tumor cells; [4]): 55%
- Survived Animals on Day 42 (L1210 tumor cells; [4]): 1/6
- Weight Changes (L1210 tumor cells; 80 mg/Kg i.p. on day 1 and day 4, weight changes from the first day to the seventh day): -1.2 g
- water solubility [1]: 17 mg/mL

Structure (SMILES): O=C1[O][Pt]2([NH]C3CCCCC3[NH]2)[O]C(=O)C1(F)CCCOC1OC(CO)C(O)C(O)C1O (stereo not shown) [Complex 9]
- pIC50 (A549): 4.99
- pIC50 (SKOV3): 4.67
- pIC50 (MCF7): 5.17
- pIC50 (HT29): 5.92
- pIC50 (DU145): 5.15
- pIC50 (H460): 4.67
- ILS (%) (L1210 tumor cells; [5]): >400%
- Survived Animals on Day 42 (L1210 tumor cells; [5]): 6/6
- Weight Changes (g) (L1210 tumor cells; 50 mg/Kg i.p. on day 1 and day 4, weight changes from the first day to the seventh day): +1.5 g
- ILS (%) (L1210 tumor cells; [6]): >400%
- Survived Animals on Day 42 (L1210 tumor cells; [6]): 6/6
- Weight Changes (g) (L1210 tumor cells; 100 mg/Kg i.p. on day 1 and day 4, weight changes from the first day to the seventh day): +0.1 g
- ILS (%) (L1210 tumor cells; [7]): >400%
- Survived Animals on Day 42 (L1210 tumor cells; [7]): 6/6
- Weight Changes (L1210 tumor cells; 200 mg/Kg i.p. on day 1 and day 4, weight changes from the first day to the seventh day): -0.5 g

Reference: US20140349955A1, “USE OF FLUORINE-CONTAINING WATER SOLUBLE PLATINUM COMPLEX IN PREPARING DRUGS FOR PREVENTION AND TREATMENT OF CANCERS” (GUDUI BIOPHARMA TECHNOLOGY INC., priority 2011, published 2014)
